Test results: patent publication US5849326A, “Method for treating neuronal diseases via administration of 2-acylaminopropanol derivatives” (Seikagaku Corporation, priority 1993, dated 1998)
Several values for one entry are separate records, joined by “and”; a condition that tells them apart may be missing. Equal entries are not always repeated.

Tests used:
[1] = system: LacCer (lactosylceramide) synthase; test: Enzyme activity in treated cerebral cortex culture: LacCer synthase; assay type: cell-based, rat; conditions: culture treated with 15 μM for 40 hours
Method: (§1) After the mixture was cultured for 40 hours, the resulting culture was harvested and pulverized in a homogenized buffer (50 mM Hepes, 0.32M sucrose) by using a chip type sonicator to prepare an enzyme source.
GlcCer as an acceptor substrate was reacted with 0.315mM UDP (uridine diphosphate)-^3 H galactose (2.7×10^8 cpm) as a donor substrate. After the mixture containing ^3 H-LacCer which was a reaction product was developed by a silica gel thin layer plate, a portion corresponding to the reaction product was scratched off, and its radioactivity was counted.

[2] = system: serine palmitoyltransferase; test: Enzyme activity in treated cerebral cortex culture: serine palmitoyltransferase; assay type: cell-based, rat; conditions: culture treated with 15 μM for 40 hours
Method: as §1
1.5 mM palmitoyl CoA (coenzyme A) and 0.1 mM ^14 C serine (8.3×10^5 cpm) were reacted in the presence of 0.5 mM pyridoxalphosphoric acid. After 3-keto-sphingosine which was a reaction product was extracted, the extract was concentrated and evaporated to dryness, and its radioactivity was counted.

[3] = molecular target: T1, GlcCer (glucosylceramide) synthase (Rattus norvegicus, UniProt Q9R0E0); test: Enzyme activity in treated cerebral cortex culture: GlcCer synthase; assay type: cell-based; conditions: culture treated with 15 μM for 40 hours; read-out: Accelerating activity when enzyme activity of control is defined as 100%: GlcCer-synthase
T1 construct: primary culture of cerebral cortex tissue specimens of Wister albino rats; endogenous in cells; host or cells: primary culture of rat (Wistar) cerebral cortex, sonicated after 40 h with compound
T1 sequence (Q9R0E0 1-394): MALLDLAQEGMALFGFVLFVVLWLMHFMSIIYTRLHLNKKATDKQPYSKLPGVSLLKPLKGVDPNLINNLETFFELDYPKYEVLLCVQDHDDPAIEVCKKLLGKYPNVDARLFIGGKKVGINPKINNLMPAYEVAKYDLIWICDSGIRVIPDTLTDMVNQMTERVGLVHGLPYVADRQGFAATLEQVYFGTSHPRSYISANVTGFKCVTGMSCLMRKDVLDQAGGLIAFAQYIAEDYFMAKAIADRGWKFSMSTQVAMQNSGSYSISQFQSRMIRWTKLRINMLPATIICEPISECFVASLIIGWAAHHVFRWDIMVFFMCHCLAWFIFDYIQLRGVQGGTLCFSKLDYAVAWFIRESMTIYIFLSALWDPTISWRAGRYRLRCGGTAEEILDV
Method: as §1
After ^3 H-GlcCer which was a reaction product was extracted with t-butyl methyl ether, the extract was concentrated and evaporated to dryness, and its radioactivity was measured.

physchem = conditions: physiological saline
[4] = system: rat cerebral cortex neurocytes; test: Synapse formation measured as frequency of intracellular Ca2+ fluctuation; assay type: cell-based
Source text: Further, as a method of measuring synapse formation relatively simply and easily, there has been developed a multipoint observation system of Ca^2+ in neurocytes using Fura-2, and it has been confirmed that the number of synapse formation is in direct proportion to frequency of intracellular Ca^2+ fluctuation in synchronization therewith (Br. J. Pharmacol., 89, 191-198, 1986; Neurosci. Lett., 78, 69-74, 1987). We investigated influences of L-threo-FDMP and D-threo-PDMP exerted on synapse formation between rat cerebral cortex neurocytes by using this method, and the results are shown below.

[5] = system: rat cerebral ischemia models; test: Antidementia effect in rat cerebral ischemia models (Example 10); assay type: in vivo; conditions: 2×40 mg/kg/day intraperitoneally for 6 days from 24 hours after ischemia; retention trial 12 hours after final administration; 8 rats
Method: After 12 hours from the final administration, retention trial was carried out.

[6] = system: cerebral cortexes of rat fetuses (explants); test: Explant culture of cerebral cortexes, neurocytes having neurites
Source text: The effect of neurite extension by administering the medicine after the culture was judged by measuring the number of neurocytes having neurites existing in the explants (the cultured tissues).

GM3 synthase = test: Enzyme activity in treated cerebral cortex culture: GM3 synthase; assay type: cell-based, rat; conditions: culture treated with 15 μM for 40 hours
Method: as §1
After the mixture containing a reaction product was developed by a reverse phase thin layer plate, a portion corresponding to the reaction product was scratched off, and its radioactivity was counted.

[7] = system: primary cultured rat cerebral neurocytes (hippocampal neurons); test: Neurite extension of primary cultured hippocampal neurocytes
Method: Hippocampi of rat brains at the 0th day after birth were extracted aseptically, subjected to enzyme treatment with papain in the same manner as in Example 1 and then washed with a DF medium. […] After culture for 24 hours, the neurocytes were fixed by paraformaldehyde, and a degree of neurite extension was recorded by microphotographs and then observed.

[8] = system: primary cultured rat cerebral neurocytes; test: Ganglioside content (ganglioside-binding sialic acid) of primary cultured neurocytes; assay type: cell-based; conditions: Rattus norvegicus, 72 h, culture for 3 days, control defined as 100%
Method: Rat fetuses at the 18th day of pregnancy were taken out, and forebrain base portions of the fetuses were extracted aseptically and cut into small pieces by scissors. After the pieces were treated with papain (in a phosphate buffer containing 0.02% L-cysteine containing 180 U papain, 0.02% bovine serum albumin and 0.5% glucose, pH 7.4, at 37° C. for 30 minutes), they were washed with a mixed solution (DF medium) of 1:1 of a Dulbecco modified Eagle's medium and a Ham's F12 medium and suspended in a DF medium containing 5% bovine fetal serum and 5% equine serum. This neurocyte suspension was charged into a culture plate with 24 wells (Falcon, Primaria) in an amount of 1×10^6 cells/well. […] After completion of the culture, the cells in the respective wells were washed with a phosphate buffer and recovered by rubber policeman. Further, a ganglioside fraction was extracted by adding chloroform/methanol/water (1:2:0.8) and shaking the mixture for 5 minutes. […] The no addition group (control) which was defined as 100% was compared with the test groups, and the results are shown in Table 1.

ICR mice = test: General toxicity, continuous 10-day intraperitoneal administration; assay type: in vivo; conditions: 100 mg/kg/day intraperitoneally for 10 days
[9] = system: acyl-CoA: sphingosine N-acyltransferase; test: Enzyme activity in treated cerebral cortex culture: acyl-CoA: sphingosine N-acyltransferase; assay type: cell-based, rat; set-up: key: *: No accelerating activity; conditions: culture treated with 15 μM for 40 hours
Method: as §1
0.25 mM sphingosine and 0.45 mM ^14 C palmitoyl CoA (8.3×10^5cpm) were reacted in the presence of ATP (adenosine 5'-triphosphate). After ceramide which was a reaction product was subjected to solvent extraction, the extract was concentrated and evaporated to dryness, and its radioactivity was counted.

GD3 synthase = test: Enzyme activity in treated cerebral cortex culture: GD3 synthase; assay type: cell-based, rat; conditions: culture treated with 15 μM for 40 hours; 2400 min, 15 µM
Method: as §1
GM3 as an acceptor substrate was reacted with 30 mM CMP-^14 C sialic acid (2.88×10^6 cpm) as a donor substrate. After the mixture containing a reaction product was developed by a reverse phase thin layer plate, a portion corresponding to the reaction product was scratched off, and its radioactivity was counted.

enzyme activity relative to control at 15 µM [3]: 122%
solubility (physchem): ≤ 500 µg/mL
SMILES: CCCCCCCCCC(=O)N[C@@H](CN1CCOCC1)[C@@H](O)c1ccccc1 [L-threo-PDMP, 1-phenyl-2-decanoylamino-3-morpholino-1-propanol]
Accelerating activity when enzyme activity of control is defined as 100%: LacCer synthase [1]: 243.3%
Accelerating activity when enzyme activity of control is defined as 100%: Serine palmitoyltransferase [2]: 148.2%
number of synapse formation (frequency of intracellular Ca2+ fluctuation) ([4]; FIG. 4): increase in the number of synapse formation depending on a dose
concentration at which a pharmaceutical effect has been observed ([4]; culture for 8 hours, neurocytes of cerebral cortexes of rat fetuses): 40 µM
rats recovered to a normal level [5]: 50%
number of neurocytes having neurites in the explants versus group to which no medicine was administered ([6]; 10 μM, cultured for 2 days, medium containing no serum): about one and half times
concentration range in which a pharmaceutical effect has been observed ([6]; culture of cerebral cortex pieces of rat fetuses): 5 to 20 µM
Accelerating activity when enzyme activity of control is defined as 100%: GM3 synthase (GM3 synthase): 197.4%
neurite extension (microphotographs) ([7]; 5 μM, 20 μM and 40 μM, culture for 24 hours, FIG. 2): significant neurite-extending action
lengths of the neurites, statistical processing ([7]; 1 to 40 μM, FIG. 3): accelerates neurite extension with a significant different of P<0.005
activity at 20 µM [8]: 127%
decrease in weight / decrease in neutrophile, acidocyte due to suppression of bone marrow (ICR mice; in Myrj 52): neither decrease in weight nor decrease in neutrophile, acidocyte, etc. due to suppression of bone marrow was observed
abnormality on observation for 3 months (ICR mice; observation for 3 months): no abnormality was observed
Accelerating activity when enzyme activity of control is defined as 100%: Acyl-CoA: sphigosine N-acyltransferase [9]: *
Accelerating activity when enzyme activity of control is defined as 100%: GD3 synthase (GD3 synthase): 300% and 302.5%
